In patent US10945432B2, “Active compound combinations comprising a (thio)carboxamide derivative and a fungicidal compound” (BAYER CROPSCIENCE AKTIENGESELLSCHAFT, priority 2013, dated 2021):

Columns and labels:
Format in all cases: in vivo
[1] = test system: Septoria tritici; test: Septoria tritici-test (wheat)/preventive; conditions: 21 days after inoculation
Procedure: (§1) • Solvent: 49 parts by weight of N,N-dimethylacetamide • Emulsifier: 1 part by weight of alkylaryl polyglycol ether
(§2) To produce a suitable preparation of active compound, 1 part by weight of active compound or active compound combination is mixed with the stated amounts of solvent and emulsifier, and the concentrate is diluted with water to the desired concentration.
To test for preventive activity, young plants are sprayed with the preparation of active compound or active compound combination at the stated rate of application. After the spray coating has been dried, the plants are sprayed with a spore suspension of Septoria tritici. The plants remain for 48 hours in an incubation cabinet at approximately 20° C. and a relative atmospheric humidity of approximately 100% and afterwards for 60 hours at approximately 15° C. in a translucent incubation cabinet at a relative atmospheric humidity of approximately 100%. The plants are placed in the greenhouse at a temperature of approximately 15° C. and a relative atmospheric humidity of approximately 80%.
The test is evaluated 21 days after the inoculation. 0% means an efficacy which corresponds to that of the untreated control, while an efficacy of 100% means that no disease is observed.

[2] = test system: Alternaria solani; test: Alternaria test (tomatoes)/preventive; conditions: 3 days after inoculation
Procedure: (§3) • Solvent: 24.5 parts by weight of acetone • 24.5 parts by weight of dimethylacetamide • Emulsifier: 1 part by weight of alkylaryl polyglycol ether
(§4) To produce a suitable preparation of active compound, 1 part by weight of active compound is mixed with the stated amounts of solvent and emulsifier, and the concentrate is diluted with water to the desired concentration.
To test for preventive activity, young plants are sprayed with the preparation of active compound at the stated rate of application. After the spray coating has dried on, the plants are inoculated with an aqueous spore suspension of Alternaria solani. The plants are then placed in an incubation cabinet at approximately 20° C. and a relative atmospheric humidity of 100%.
The test is evaluated 3 days after the inoculation. 0% means an efficacy which corresponds to that of the untreated control while an efficacy of 100% means that no disease is observed.

[3] = test system: Venturia inaequalis; test: Venturia test (apples)/preventive; conditions: 10 days after inoculation
Procedure: as §3, §4
To test for preventive activity, young plants are sprayed with the preparation of active compound at the stated rate of application. After the spray coating has dried on, the plants are inoculated with an aqueous conidia suspension of the causal agent of apple scab (Venturia inaequalis) and then remain for 1 day in an incubation cabinet at approximately 20° C. and a relative atmospheric humidity of 100%. The plants are then placed in a greenhouse at approximately 21° C. and a relative atmospheric humidity of approximately 90%.
The test is evaluated 10 days after the inoculation. 0% means an efficacy which corresponds to that of the untreated control, while an efficacy of 100% means that no disease is observed.

[4] = test system: Botrytis cinerea; test: Botrytis test (beans)/preventive; conditions: Table B1, 2 days after inoculation
Procedure: as §3, §4
To test for preventive activity, young plants are sprayed with the preparation of active compound. After the spray coating has dried on, 2 small pieces of agar covered with growth of Botrytis cinerea are placed on each leaf. The inoculated plants are placed in a darkened chamber at 20° C. and a relative atmospheric humidity of 100%.
2 days after the inoculation, the size of the lesions on the leaves is evaluated. 0% means an efficacy which corresponds to that of the untreated control, while an efficacy of 100% means that no disease is observed.

[5] = test system: Pyrenophora teres; test: Pyrenophora teres-test (barley)/preventive; conditions: Table C1, 8 days after inoculation
Procedure: as §1, §2
To test for preventive activity, young plants are sprayed with the preparation of active compound or active compound combination at the stated rate of application. After the spray coating has been dried, the plants are sprayed with a spore suspension of Pyrenophora teres. The plants remain for 48 hours in an incubation cabinet at approximately 20° C. and a relative atmospheric humidity of approximately 100%. The plants are placed in the greenhouse at a temperature of approximately 20° C. and a relative atmospheric humidity of approximately 80%.
The test is evaluated 8 days after the inoculation. 0% means an efficacy which corresponds to that of the untreated control, while an efficacy of 100% means that no disease is observed.

[6] = test system: Sphaerotheca fuliginea; test: Sphaerotheca test (cucumbers)/preventive; conditions: Table E1, 7 days after inoculation
Procedure: as §3, §4
To test for preventive activity, young plants are sprayed with the preparation of active compound at the stated rate of application. After the spray coating has dried on, the plants are inoculated with an aqueous spore suspension of Sphaerotheca fuliginea. The plants are then placed in a greenhouse at approximately 23° C. and a relative atmospheric humidity of approximately 70%.
The test is evaluated 7 days after the inoculation. 0% means an efficacy which corresponds to that of the untreated control, while an efficacy of 100% means that no disease is observed.

In the case of Cc1nn(C)c(Nc2c(F)cc(Cl)cc2F)c1-c1ccc(F)cc1Cl [b39, N-(4-chloro-2,6-difluorophenyl)-4-(2-chloro-4-fluorophenyl)-1,3-dimethyl-1H-pyrazol-5-amine], the “Efficacy in % found” value ([1]; Table D1, 60 ppm a.i.) was 50%, the “Efficacy in % found” value ([1]; Table D1, 240 ppm a.i.) was 88% and the “Efficacy in % found” value ([2]; Table A1, 1 ppm a.i.) was 17%.
Cc1nc2c(F)c(F)ccc2cc1Oc1cccc(F)c1C(C)(C)O [b47, 2-{2-[(7,8-difluoro-2-methylquinolin-3-yl)oxy]-6-fluorophenyl}propan-2-ol] was tested, and the “Efficacy in % found” value ([3]; Table F2, 0.5 ppm a.i.) was 30%, the “Efficacy in % found” value ([1]; Table D2, 50 ppm a.i.) was 0% and the “Efficacy in % found” value ([1]; Table D2, 200 ppm a.i.) was 67%. The “Efficacy in % found” value ([2]; Table A2, 0.5 ppm a.i.) was 9% and the “Efficacy in % found” value ([2]; Table A2, 1 ppm a.i.) was 29%.
With CC(C)c1ccc(Cl)cc1CN(C(=O)c1c(C(F)F)nn(C)c1F)C1CC1 [compound A5, N-(5-chloro-2-isopropylbenzyl)-N-cyclopropyl-3-(difluoromethyl)-5-fluoro-1-methyl-1H-pyrazole-4-carboxamide] the “Efficacy in % found” value ([3]; Table F1, 0.5 ppm a.i.) was 0%, the “Efficacy in % found” value ([3]; Table F1, 1 ppm a.i.) was 0% and the “Efficacy in % found” value ([3]; Table F2, 0.5 ppm a.i.) was 0%. For the same compound, the “Efficacy in % found” value ([3]; Table F2, 1 ppm a.i.) was 0%, the “Efficacy in % found” value ([3]; Table F2, 2 ppm a.i.) was 29% and the “Efficacy in % found” value ([4]; 1 ppm a.i.) was 15%. For the same compound, the “Efficacy in % found” value ([1]; Table D1, 5 ppm a.i.) was 50%, the “Efficacy in % found” value ([1]; Table D1, 10 ppm a.i.) was 50% and the “Efficacy in % found” value ([1]; Table D2, 10 ppm a.i.) was 17%. The “Efficacy in % found” value ([1]; Table D2, 20 ppm a.i.) was 67%, the “Efficacy in % found” value ([5]; 10 ppm a.i.) was 13% and the “Efficacy in % found” value ([6]; 0.5 ppm a.i.) was 30%. For the same compound, the “Efficacy in % found” value ([6]; 1 ppm a.i.) was 37%, the “Efficacy in % found” value ([2]; Table A1, 0.5 ppm a.i.) was 38% and the “Efficacy in % found” value ([2]; Table A1, 1 ppm a.i.) was 30%. The “Efficacy in % found” value ([2]; Table A2, 0.5 ppm a.i.) was 0% and the “Efficacy in % found” value ([2]; Table A2, 1 ppm a.i.) was 41%.
CC(O)(Cn1cncn1)c1ccc(Oc2ccc(Cl)cc2)cc1C(F)(F)F (centres unmarked) [b40, 2-[4-(4-chlorophenoxy)-2-(trifluoromethyl)phenyl]-1-(1H-1,2,4-triazol-1-yl)propan-2-ol] was tested, and the “Efficacy in % found” value ([6]; 2.5 ppm a.i.) was 37%, the “Efficacy in % found” value ([6]; 10 ppm a.i.) was 85% and the “Efficacy in % found” value ([2]; Table A1, 2.5 ppm a.i.) was 66%.
With CON(C(=O)c1cn(C)nc1C(F)F)C(C)Cc1c(Cl)cc(Cl)cc1Cl (centres unmarked) [b29, 3-(difluoromethyl)-N-methoxy-1-methyl-N-[1-(2,4,6-trichlorophenyl)propan-2-yl]-1H-pyrazole-4-carboxamide] the “Efficacy in % found” value ([1]; Table D1, 5 ppm a.i.) was 94%, the “Efficacy in % found” value ([6]; 0.25 ppm a.i.) was 30% and the “Efficacy in % found” value ([6]; 1 ppm a.i.) was 30%.
For CC1(C)CN=C(c2cnc3ccccc3c2)c2cccc(F)c2O1 [b45, 9-fluoro-2,2-dimethyl-5-(quinolin-3-yl)-2,3-dihydro-1,4-benzoxazepine], the “Efficacy in % found” value ([3]; Table F2, 1 ppm a.i.) was 0%, the “Efficacy in % found” value ([1]; Table D2, 50 ppm a.i.) was 0% and the “Efficacy in % found” value ([1]; Table D2, 200 ppm a.i.) was 0%. For the same compound, the “Efficacy in % found” value ([2]; Table A2, 0.5 ppm a.i.) was 24%.
For CCC(O)(Cn1cncn1)c1ccc(Oc2ccc(Cl)cc2)cc1C(F)(F)F (centres unmarked) [b41, 2-[4-(4-chlorophenoxy)-2-(trifluoromethyl)phenyl]-1-(1H-1,2,4-triazol-1-yl)butan-2-ol], the “Efficacy in % found” value ([4]; 10 ppm a.i.) was 36%, the “Efficacy in % found” value ([5]; 15 ppm a.i.) was 25% and the “Efficacy in % found” value ([5]; 60 ppm a.i.) was 0%.
In the case of CC1(C)N=C(c2cnc3ccccc3c2)c2ccccc2C1(F)F [b27, 3-(4,4-difluoro-3,3-dimethyl-3,4-dihydroisoquinolin-1-yl)quinoline], the “Efficacy in % found” value ([3]; Table F1, 0.5 ppm a.i.) was 23%, the “Efficacy in % found” value ([4]; 1 ppm a.i.) was 60% and the “Efficacy in % found” value ([5]; 60 ppm a.i.) was 38%. For the same compound, the “Efficacy in % found” value ([5]; 240 ppm a.i.) was 75%.
In the case of Cc1nc2c(F)cccc2cc1Oc1cccc(F)c1C(C)(C)O [b46, 2-{2-fluoro-6-[(8-fluoro-2-methylquinolin-3-yl)oxy]phenyl}propan-2-ol], the “Efficacy in % found” value ([3]; Table F2, 0.5 ppm a.i.) was 18%, the “Efficacy in % found” value ([1]; Table D2, 50 ppm a.i.) was 0% and the “Efficacy in % found” value ([1]; Table D2, 200 ppm a.i.) was 67%. For the same compound, the “Efficacy in % found” value ([2]; Table A2, 0.5 ppm a.i.) was 18% and the “Efficacy in % found” value ([2]; Table A2, 1 ppm a.i.) was 24%.
